Measurements taken from article PMC10817917, “Alkyl deoxyglycoside-polymyxin combinations against critical priority carbapenem-resistant gram-negative bacteria” (Scientific Reports, 2024).
Where “and” joins values, the source holds several entries; their conditions need not be identical. Equal values may be shown once. Read-outs that look alike come from different tables or passages of the source.

Assays:
Assay in all cases: Broth microdilution MIC/MBC, glycosides with or without polymyxins
E. cloacae CQ1941 = type: cell-based; conditions: for MIC: Enterobacter cloacae, CQ1941
K. pneumoniae CQ4921 = type: cell-based, Klebsiella pneumoniae; conditions: for MIC: Klebsiella pneumoniae, CQ4921
A. baumannii CQ4322 = type: cell-based, Acinetobacter baumannii; conditions: for MIC: Acinetobacter baumannii, CQ4322
E. coli ATCC 25922 = type: cell-based, Escherichia coli; conditions: for MIC: Escherichia coli, ATCC25922
[1] = alone, read-out: MICA (MIC of each compound individually)
[2] = combination with the lowest FICI
[3] = compound + colistin, lowest FICI

MIC of colistin in combination with the compound (E. cloacae CQ1941; Cpd conc. 0.4 μg/mL, strain D): 0.5 µg/mL | MIC of colistin in combination with the compound (E. cloacae CQ1941; Cpd conc. 0.8 μg/mL, strain D): 0.5 µg/mL | MIC of colistin in combination with the compound (E. cloacae CQ1941; Cpd conc. 3.125 μg/mL, strain D): 0.125 µg/mL | MIC of colistin in combination with the compound (E. cloacae CQ1941; Cpd conc. 6.25 μg/mL, strain D): 0.125 µg/mL | MIC of colistin in combination with the compound (E. cloacae CQ1941; Cpd conc. 12.5 μg/mL, strain D): 0.125 µg/mL | MIC of colistin in combination with the compound (E. cloacae CQ1941; Cpd conc. […], strain D): 0.5 µg/mL | MIC (E. cloacae CQ1941; agent alone, no adjuvant (polymyxin conc. 0), strain D, read-out: MIC): > 100 µg/mL | MIC (E. cloacae CQ1941; [1]): > 100 µg/mL | MIC of compound in combination with PMB (E. cloacae CQ1941; PMB 0.25 μg/mL, strain D): > 100 µg/mL | MIC of compound in combination with PMB (E. cloacae CQ1941; PMB 0.5 μg/mL, strain D): 1.6 µg/mL | MIC of compound in combination with colistin (E. cloacae CQ1941; colistin 0.06 μg/mL, strain D): > 100 µg/mL | MIC of compound in combination with colistin (E. cloacae CQ1941; colistin 0.125 μg/mL, strain D): 3.1 µg/mL | MIC of compound in combination with colistin (E. cloacae CQ1941; colistin 0.25 μg/mL, strain D): 3.1 µg/mL | MIC of compound in combination with colistin (E. cloacae CQ1941; colistin 0.5 μg/mL, strain D): ≤ 0.1 µg/mL | MICA(A + B) (MIC of compound in combination with colistin) (E. cloacae CQ1941; [2]): 3.125 µg/mL | MICB(A + B) (MIC of colistin in combination with compound) (E. cloacae CQ1941; [2]): 0.125 µg/mL | MIC of colistin in combination with the compound (K. pneumoniae CQ4921; Cpd conc. 0.4 μg/mL, strain C): 0.5 µg/mL | MIC of colistin in combination with the compound (K. pneumoniae CQ4921; Cpd conc. 0.8 μg/mL, strain C): 0.5 µg/mL | MIC of colistin in combination with the compound (K. pneumoniae CQ4921; Cpd conc. 3.125 μg/mL, strain C): 0.125 µg/mL | MIC of colistin in combination with the compound (K. pneumoniae CQ4921; Cpd conc. 6.25 μg/mL, strain C): 0.125 µg/mL | MIC of colistin in combination with the compound (K. pneumoniae CQ4921; Cpd conc. 12.5 μg/mL, strain C): 0.125 µg/mL | MIC of colistin in combination with the compound (K. pneumoniae CQ4921; Cpd conc. […], strain C): 0.5 µg/mL | MIC (K. pneumoniae CQ4921; agent alone, no adjuvant (polymyxin conc. 0), strain C, read-out: MIC): > 100 µg/mL | MIC (K. pneumoniae CQ4921; [1]): > 100 µg/mL | MIC of compound in combination with PMB (K. pneumoniae CQ4921; PMB 0.25 μg/mL, strain C): > 100 µg/mL | MIC of compound in combination with PMB (K. pneumoniae CQ4921; PMB 0.5 μg/mL, strain C): 1.6 µg/mL | MIC of compound in combination with colistin (K. pneumoniae CQ4921; colistin 0.06 μg/mL, strain C): > 100 µg/mL | MIC of compound in combination with colistin (K. pneumoniae CQ4921; colistin 0.125 μg/mL, strain C): 3.1 µg/mL | MIC of compound in combination with colistin (K. pneumoniae CQ4921; colistin 0.5 μg/mL, strain C): ≤ 0.1 µg/mL | MICA(A + B) (MIC of compound in combination with colistin) (K. pneumoniae CQ4921; [2]): 3.125 µg/mL | MICB(A + B) (MIC of colistin in combination with compound) (K. pneumoniae CQ4921; [2]): 0.125 µg/mL | MIC (A. baumannii CQ4322; agent alone, no adjuvant (polymyxin conc. 0), strain G, read-out: MIC): > 100 µg/mL | MIC (A. baumannii CQ4322; [1]): > 100 µg/mL | MIC of colistin in combination with the compound (A. baumannii CQ4322; Cpd conc. 0.4 μg/mL, strain G): > 0.5 µg/mL | MIC of colistin in combination with the compound (A. baumannii CQ4322; Cpd conc. 0.8 μg/mL, strain G): 0.5 µg/mL | MIC of colistin in combination with the compound (A. baumannii CQ4322; Cpd conc. 3.125 μg/mL, strain G): 0.25 µg/mL | MIC of colistin in combination with the compound (A. baumannii CQ4322; Cpd conc. 6.25 μg/mL, strain G): 0.25 µg/mL | MIC of colistin in combination with the compound (A. baumannii CQ4322; Cpd conc. 12.5 μg/mL, strain G): 0.25 µg/mL | MIC of colistin in combination with the compound (A. baumannii CQ4322; Cpd conc. […], strain G): 0.5 µg/mL | MIC of compound in combination with PMB (A. baumannii CQ4322; PMB 0.25 μg/mL, strain G): > 100 µg/mL | MIC of compound in combination with PMB (A. baumannii CQ4322; PMB 0.5 μg/mL, strain G): 3.1 µg/mL | MIC of compound in combination with colistin (A. baumannii CQ4322; colistin 0.06 μg/mL, strain G): > 100 µg/mL | MIC of compound in combination with colistin (A. baumannii CQ4322; colistin 0.125 μg/mL, strain G): 25 μg/mL and 25|25 μg/mL | MIC of compound in combination with colistin (A. baumannii CQ4322; colistin 0.25 μg/mL, strain G): 3.1 µg/mL | MIC of compound in combination with colistin (A. baumannii CQ4322; colistin 0.5 μg/mL, strain G): 0.8 µg/mL | MICA(A + B) (MIC of compound in combination with colistin) (A. baumannii CQ4322; [2]): 25 µg/mL | MICB(A + B) (MIC of colistin in combination with compound) (A. baumannii CQ4322; [2]): 0.125 µg/mL | MIC of colistin in combination with the compound (E. coli ATCC 25922; Cpd conc. 0.4 μg/mL, strain A): > 0.5 µg/mL | MIC of colistin in combination with the compound (E. coli ATCC 25922; Cpd conc. 0.8 μg/mL, strain A): > 0.5 µg/mL | MIC of colistin in combination with the compound (E. coli ATCC 25922; Cpd conc. 3.125 μg/mL, strain A): 0.25 µg/mL | MIC of colistin in combination with the compound (E. coli ATCC 25922; Cpd conc. 6.25 μg/mL, strain A): 0.125 µg/mL | MIC of colistin in combination with the compound (E. coli ATCC 25922; Cpd conc. 12.5 μg/mL, strain A): ≤ 0.06 µg/mL | MIC of colistin in combination with the compound (E. coli ATCC 25922; Cpd conc. […], strain A): 0.5 µg/mL | MIC (E. coli ATCC 25922; agent alone, no adjuvant (polymyxin conc. 0), strain A, read-out: MIC): > 100 µg/mL | MIC (E. coli ATCC 25922; [1]): > 100 µg/mL | MIC of compound in combination with PMB (E. coli ATCC 25922; PMB 0.25 μg/mL, strain A): 3.1 µg/mL | MIC of compound in combination with PMB (E. coli ATCC 25922; PMB 0.5 μg/mL, strain A): 3.1 µg/mL | MIC of compound in combination with colistin (E. coli ATCC 25922; colistin 0.06 μg/mL, strain A): 12.5 µg/mL | MIC of compound in combination with colistin (E. coli ATCC 25922; colistin 0.125 μg/mL, strain A): 6.3 μg/mL and 6.3|6.3 μg/mL | MIC of compound in combination with colistin (E. coli ATCC 25922; colistin 0.25 μg/mL, strain A): 3.1 µg/mL | MIC of compound in combination with colistin (E. coli ATCC 25922; colistin 0.5 μg/mL, strain A): 1.6 µg/mL
Structure (SMILES): CCCCCCCCCCCC[C@H]1O[C@H](C)C[C@H](O)[C@H]1O [Compound 5, 1-(4,6-dideoxy-α-D-xylo-hexopyranosyl)dodecane]
MBC of compound in combination with colistin (E. cloacae CQ1941; colistin 0.125 μg/mL, strain D): 6.3 µg/mL | FICI (E. cloacae CQ1941; [3]): 0.27 | MBC of compound in combination with colistin (K. pneumoniae CQ4921; colistin 0.125 μg/mL, strain C): 6.3 µg/mL | Interpretation (of FICI) (K. pneumoniae CQ4921; compound + colistin): Synergy (Values ≤ 0.5 were considered synergistic) | FICI (K. pneumoniae CQ4921; [3]): 0.27 | MBC of compound in combination with colistin (A. baumannii CQ4322; colistin 0.125 μg/mL, strain G): 25|25 μg/mL | FICI (A. baumannii CQ4322; [3]): 0.38 | MBC of compound in combination with colistin (E. coli ATCC 25922; colistin 0.125 μg/mL, strain A): 6.3|6.3 μg/mL
